System: M. Smegmatis ATCC607
Assay: In-vitro anti-bacterial activity against strain M. smegmatis ATCC607 (Alamar Blue growth inhibition)
Type: cell-based
Settings: 48 hours incubation; for IC50: Mycolicibacterium smegmatis, read-out: M. smegmatis pIC50 (converted)
Method: Serial five-fold dilutions (45 μl in 180 μl) were made directly in the microtiter plates from column 2 to 11 using a customised robot system (Zymark Corp., Hopkinton, Mass.). Pipette tips were changed after every 3 dilutions to minimize pipetting errors with high hydrophobic compounds. Untreated control samples with (column 1) and without (column 12) inoculum were included in each microtiter plate. Approximately 250 CFU per well of bacteria inoculum, in a volume of 100 μl in 2.8× Mueller-Hinton broth medium, was added to the rows […]. The same volume of broth medium without inoculum was added to column 12 in row A to H. The cultures were incubated at 37° C. for 48 hours in a humidified 5% CO2 atmosphere (incubator with open air valve and continuous ventilation). At the end of incubation, two days after inoculation, the bacterial growth was quantitated fluorometrically. Therefore Alamar Blue (10×) was added to all wells in a volume of 20 μl and plates were incubated for another 2 hours at […] The fluorescence was read in a computer-controlled fluorometer (Cytofluor, Biosearch) at an excitation wavelength of 530 nm and an emission wavelength of 590 nm (gain 30). The percentage growth inhibition achieved by the compounds was calculated according to standard methods and expressed as pIC50 values.

Row | SMILES | M. smegmatis pIC50 | IC50
1 | COc1nc2ccc(Br)cc2cc1C(c1ccccc1)N(C)CCN(C)C (centres unmarked) [Compound 1] | 5.1 | –
2 | CCN(CC)CCN(C)C(c1ccccc1)c1cc2cc(Br)ccc2nc1OC (centres unmarked) [Compound 2] | – | 2000 nM
3 | COc1nc2ccc(Br)cc2cc1C(c1ccccc1)N(C)CC(=O)N(C)C (centres unmarked) [Compound 4] | 5.1 | –
4 | COc1nc2ccc(Br)cc2cc1C(c1ccccc1)N(C)CC(=O)N(C)C(C)C (centres unmarked) [Compound 5] | 5.1 | –
5 | CCCCN(C)C(=O)CN(C)C(c1ccccc1)c1cc2cc(Br)ccc2nc1OC (centres unmarked) [Compound 6] | 5.1 | –
6 | COc1nc2ccc(Br)cc2cc1C(c1ccccc1)N(C)CC(=O)N(C)CC#N (centres unmarked) [Compound 7] | 4.9 | –
7 | COc1nc2ccc(Br)cc2cc1C(c1ccccc1)N(C)CC(=O)N(C)CCN(C)C (centres unmarked) [Compound 8] | 5.1 | –
8 | COc1nc2ccc(Br)cc2cc1C(c1ccccc1)N(C)CC(=O)N(C)CCCN(C)C (centres unmarked) [Compound 9] | 5 | –
9 | COc1nc2ccc(Br)cc2cc1C(c1ccccc1)N(C)CC(=O)N(C)c1ccccc1C (centres unmarked) [Compound 10] | 4.7 | –
10 | CCN(Cc1ccncc1)C(=O)CN(C)C(c1ccccc1)c1cc2cc(Br)ccc2nc1OC (centres unmarked) [Compound 12] | 5.1 | –
11 | COCCN(CCOC)C(=O)CN(C)C(c1ccccc1)c1cc2cc(Br)ccc2nc1OC (centres unmarked) [Compound 13] | 4.6 | –
12 | COc1nc2ccc(Br)cc2cc1C(c1ccccc1)N(C)CC(=O)N(CCC#N)Cc1cccnc1 (centres unmarked) [Compound 14] | 5.2 | –
13 | COc1nc2ccc(Br)cc2c(Cl)c1C(c1ccccc1)N(C)CC(=O)N(C)C (centres unmarked) [Compound 15] | 4.8 | –
14 | COc1nc2ccc(Br)cc2cc1C(c1ccccc1)N(CC(=O)N(C)C)Cc1ccccc1 (centres unmarked) [Compound 24] | 5.1 | –
15 | COc1nc2ccc(Br)cc2cc1C(c1ccccc1)N(CC(=O)N(C)C)Cc1cccc2ncccc12 (centres unmarked) [Compound 25] | 5.4 | –
16 | COc1nc2ccc(Br)cc2cc1C(c1ccccc1)N(CC(=O)N(C)C)Cc1ccnc2ccccc12 (centres unmarked) [Compound 26] | 5.7 | –
17 | COc1nc2ccc(Br)cc2cc1C(c1ccccc1)N(C)CCCN(C)C (centres unmarked) [Compound 27] | 5.5 | –
18 | COc1nc2ccc(Br)cc2cc1C(c1ccccc1)N(CCCN(C)C)CCCN(C)C (centres unmarked) [Compound 28] | 5.1 | –
19 | CC(C)N(C)C(=O)CN(Cc1ccccc1)C(c1ccccc1)c1cc2cc(Br)ccc2nc1Oc1ccccc1 (centres unmarked) [Compound 30] | – | 631 nM
20 | CN(C)C(=O)CN(Cc1ccccc1)C(c1ccccc1)c1cc2ccccc2nc1-c1ccccc1 (centres unmarked) [Compound 32] | 5.7 | –
21 | CC(C)N(C)C(=O)CN(Cc1ccccc1)C(c1ccccc1)c1cc2ccccc2nc1-c1ccccc1 (centres unmarked) [Compound 33] | 6.5 | –

Row | SMILES | M. smegmatis pIC50 | IC50
22 | CN(C)C(=O)CN(Cc1ccccc1)C(c1cc2ccccc2o1)c1cc2ccccc2nc1-c1ccccc1 (centres unmarked) [Compound 35] | 5.6 | –
23 | CC(C)N(C)C(=O)CN(Cc1ccccc1)C(c1cc2ccccc2o1)c1cc2ccccc2nc1-c1ccccc1 (centres unmarked) [Compound 36] | – | 316 nM
24 | Cc1ccc2nc(-c3ccccc3)c(C(c3ccccc3)N(C)CCN(C)C)cc2c1 (centres unmarked) [Compound 37] | – | 20000 nM
25 | CNC(=O)CN(C)C(c1ccccc1)c1cc2cc(C)ccc2nc1-c1ccccc1 (centres unmarked) [Compound 38] | 4.5 | –
26 | Cc1ccc2nc(-c3ccccc3)c(C(c3ccccc3)N(C)CC(=O)N(C)C)cc2c1 (centres unmarked) [Compound 39] | 4.5 | –
27 | CNC(=O)CN(Cc1ccccc1)C(c1ccccc1)c1cc2cc(C)ccc2nc1-c1ccccc1 (centres unmarked) [Compound 40] | 5.6 | –
28 | Cc1ccc2nc(-c3ccccc3)c(C(c3ccccc3)N(CC(=O)NCC3CC3)Cc3ccccc3)cc2c1 (centres unmarked) [Compound 42] | 5.8 | –
29 | Cc1ccc2nc(-c3ccccc3)c(C(c3ccccc3)N(CC(=O)NC3CCCCC3)Cc3ccccc3)cc2c1 (centres unmarked) [Compound 43] | 5.2 | –
30 | Cc1ccc2nc(-c3ccccc3)c(C(c3ccccc3)N(CC(=O)NN3CCOCC3)Cc3ccccc3)cc2c1 (centres unmarked) [Compound 44] | 5.1 | –
31 | COCCN(CCOC)C(=O)CN(Cc1ccccc1)C(c1ccccc1)c1cc2cc(C)ccc2nc1-c1ccccc1 (centres unmarked) [Compound 50] | 5.8 | –
32 | O=C(CN(Cc1ccccc1)C(c1cccnc1)c1cc2ccccc2nc1-c1ccccc1)N1CCSCC1 (centres unmarked) [Compound 56] | 5.8 | –
33 | O=C(CN(Cc1ccccc1)C(c1cc2ccccc2o1)c1cc2ccccc2nc1-c1ccccc1)N1CCCC1 (centres unmarked) [Compound 57] | 5.9 | –
34 | O=C(CN(Cc1ccccc1)C(c1cc2ccccc2o1)c1cc2ccccc2nc1-c1ccccc1)N1CCSCC1 (centres unmarked) [Compound 58] | 6.1 | –
35 | COc1nc2ccc(C)cc2cc1C(c1ccccc1)N(CCC(=O)N1CCOCC1)Cc1ccccc1 (centres unmarked) [Compound 60] | 5.3 | –
36 | Cc1ccc2nc(-c3ccccc3)c(C(c3ccccc3)N(C)CC(=O)N3CCN(C)CC3)cc2c1 (centres unmarked) [Compound 62] | 5.1 | –
37 | Cc1ccc2nc(-c3ccccc3)c(C(c3ccccc3)N(C)CC(=O)N3CCOCC3)cc2c1 (centres unmarked) [Compound 63] | 5.1 | –
38 | COc1nc2ccc(Br)cc2cc1C(c1ccccc1)N(C)CC(=O)N1CCCC1 (centres unmarked) [Compound 80] | 5.1 | –
39 | COc1nc2ccc(Br)cc2cc1C(c1ccccc1)N(C)CC(=O)N1CCSC1 (centres unmarked) [Compound 81] | 5 | –
40 | COc1nc2ccc(Br)cc2cc1C(c1ccccc1)N(C)CC(=O)N1CCCCC1 (centres unmarked) [Compound 82] | 4.4 | –
41 | COc1nc2ccc(Br)cc2cc1C(c1ccccc1)N(C)CC(=O)N1CCC(C)CC1 (centres unmarked) [Compound 83] | – | 2510 nM
42 | COc1nc2ccc(Br)cc2cc1C(c1ccccc1)N(C)CC(=O)N1CCCN(C)CC1 (centres unmarked) [Compound 84] | 5.1 | –

Row | SMILES | M. smegmatis pIC50 | IC50
43 | COc1nc2ccc(Br)cc2cc1C(c1ccccc1)N(C)CC(=O)N1CC=CCC1 (centres unmarked) [Compound 85] | 5.1 | –
44 | COc1nc2ccc(Br)cc2cc1C(c1ccccc1)N(C)CC(=O)N1CCOCC1 (centres unmarked) [Compound 86] | 4.9 | –
45 | COc1nc2ccc(Br)cc2cc1C(c1ccccc1)N(C)CC(=O)N1CC(C)OC(C)C1 (centres unmarked) [Compound 87] | 5.1 | –
46 | COc1nc2ccc(Br)cc2cc1C(c1ccccc1)N(C)CC(=O)N1CCN(C)CC1 (centres unmarked) [Compound 89] | 5 | –
47 | COc1nc2ccc(Br)cc2cc1C(c1ccccc1)N(C)CC(=O)N1CCN(Cc2ccccc2)CC1 (centres unmarked) [Compound 91] | 4.1 | –
48 | COc1nc2ccc(Br)cc2cc1C(c1ccccc1)N(C)CC(=O)N1CCN(c2ccccn2)CC1 (centres unmarked) [Compound 92] | 5.1 | –
49 | COc1nc2ccc(Br)cc2cc1C(c1ccccc1)N(C)CC(=O)N1Cc2ccccc2C1 (centres unmarked) [Compound 95] | 4.9 | –
50 | COc1nc2ccc(Br)cc2c(Cl)c1C(c1ccccc1)N(C)CC(=O)N1CCOCC1 (centres unmarked) [Compound 96] | 5.2 | –
51 | COc1nc2ccc(Br)cc2cc1C(c1ccccc1)N(CC(=O)N1CCOCC1)C(C)C (centres unmarked) [Compound 98] | 5.3 | –
52 | COc1nc2ccc(Br)cc2cc1C(c1ccccc1)N(CC(=O)N1CCOCC1)Cc1ccco1 (centres unmarked) [Compound 101] | 4.9 | –
53 | COc1nc2ccc(Br)cc2cc1C(c1ccccc1)N(CC(=O)N1CCOCC1)Cc1ccccn1 (centres unmarked) [Compound 110] | 5.2 | –
54 | COc1nc2ccc(Br)cc2cc1C(c1ccccc1)N(CC(=O)N1CCSCC1)Cc1ccc2ccccc2n1 (centres unmarked) [Compound 113] | 4.5 | –
55 | COc1nc2ccc(Br)cc2cc1C(c1ccccc1)N(CC(=O)N1CCSCC1)Cc1cccc2ncccc12 (centres unmarked) [Compound 115] | 4.8 | –
56 | COc1nc2ccc(Br)cc2cc1C(c1ccccc1)N(CC(=O)N1CCOCC1)Cc1cccc2ncccc12 (centres unmarked) [Compound 116] | 5.3 | –
57 | COc1nc2ccc(Br)cc2cc1C(c1ccccc1)N(CC(=O)N1CCSCC1)Cc1ccnc2ccccc12 (centres unmarked) [Compound 117] | 4.3 | –
58 | COc1nc2ccc(Br)cc2cc1C(c1ccccc1)N(CC(=O)N1CCOCC1)Cc1ccnc2ccccc12 (centres unmarked) [Compound 118] | 5.6 | –
59 | COc1nc2ccc(Br)cc2cc1C(c1ccccc1)N(CC(=O)N1CCN(C)CC1)Cc1ccnc2ccccc12 (centres unmarked) [Compound 119] | 5.5 | –
60 | O=C(CN(Cc1ccccc1)C(c1ccccc1)c1cc2ccccc2nc1-c1ccccc1)N1CCCCC1 (centres unmarked) [Compound 126] | 6.4 | –
61 | O=C(CN(Cc1ccccc1)C(c1ccccc1)c1cc2ccccc2nc1-c1ccccc1)N1CCSCC1 (centres unmarked) [Compound 127] | 6.5 | –
62 | CCOC(=O)CN(Cc1ccccc1)C(c1cccnc1)c1cc2ccccc2nc1-c1ccccc1 (centres unmarked) [Compound 129] | – | 1580 nM

From patent publication US7915292B2, “Antibacterial quinoline derivatives” (Janssen Pharmaceutica NV, priority 2005, dated 2011)
